Data from ChEMBL document CHEMBL3994603, “Antioxidant Flavonols and Phenolic Compounds from Atraphaxis frutescens and Their Inhibitory Activities against Insect Phenoloxidase and Mushroom Tyrosinase” (J Nat Prod, 2016).

Molecular target: Mushroom tyrosinase (Agaricus bisporus, UniProt O42713+Q00024+C7FF04+C7FF05)
Description: Inhibition of mushroom tyrosinase using L-DOPA as substrate preincubated for 5 mins followed by substrate addition measured for 10 mins by spectrophotometric method

| Structure (SMILES) | IC50 [mM] |
| --- | --- |
| O=C(/C=C/c1ccc(O)cc1)NCCc1ccc(O)c(O)c1 | 4.3 |
| COc1cc(O)c2c(=O)c(O)c(-c3cc(O)c(O)c(O)c3)oc2c1OC(C)=O | > 5 |
| COc1cc(O)c2c(=O)c(O[C@@H]3O[C@@H](C)[C@H](O)[C@@H](O)[C@H]3O)c(-c3ccc(O)c(O)c3)oc2c1OC(C)=O | > 5 |
| COc1cc(CO[C@@H]2O[C@H](CO)[C@@H](O)[C@H](O)[C@H]2O)cc(OC)c1OC | > 5 |
| COc1cc(CO[C@@H]2O[C@H](CO[C@@H]3O[C@@H](C)[C@H](O)[C@@H](O)[C@H]3O)[C@@H](O)[C@H](O)[C@H]2O)cc(OC)c1OC | > 5 |
| COc1cc(O)c2c(=O)c(O[C@@H]3O[C@@H](C)[C@H](O)[C@@H](O)[C@H]3O)c(-c3cc(O)c(O)c(O)c3)oc2c1O | 1.2 |
| COc1cc(O)c2c(=O)c(O)c(-c3cc(O)c(O)c(O)c3)oc2c1O | > 5 |
| COc1cc(O)c2c(=O)c(O[C@@H]3O[C@@H](C)[C@H](O)[C@@H](O)[C@H]3O)c(-c3ccc(O)c(O)c3)oc2c1O | 2.2 |
| COc1cc(O)c2c(=O)c(O[C@@H]3O[C@@H](C)[C@H](O)[C@@H](O)[C@H]3O)c(-c3cc(O)c(O)c(O)c3)oc2c1O[C@@H]1O[C@H](CO)[C@@H](O)[C@H](O)[C@H]1O | 0.9 |
| COc1cc(O)c2c(=O)c(O[C@@H]3O[C@@H](C)[C@H](O)[C@@H](O)[C@H]3O)c(-c3ccc(O)c(O)c3)oc2c1O[C@@H]1O[C@H](CO)[C@@H](O)[C@H](O)[C@H]1O | 4 |
| COc1cc(O)c2c(=O)c(O[C@@H]3O[C@@H](C)[C@H](O)[C@@H](O)[C@H]3O)c(-c3cc(O)c(O)c(O)c3)oc2c1OC(C)=O | 4.7 |
| COc1cc(O)c2c(=O)c(O)c(-c3ccc(O)c(O)c3)oc2c1O | > 5 |
| COc1cc(O)c2c(=O)c(O[C@@H]3O[C@@H](C)[C@H](O)[C@@H](O)[C@H]3O)c(-c3cc(O)c(O)c(O)c3)oc2c1 | 1.1 |
| COc1cc(O)c2c(=O)c(O)c(-c3ccc(O)c(O)c3)oc2c1OC(C)=O | > 5 |
| C[C@@H]1O[C@@H](Oc2c(-c3cc(O)c(O)c(O)c3)oc3cc(O)cc(O)c3c2=O)[C@H](O)[C@H](O)[C@H]1O | 2 |
| Oc1cc(O)c2c(c1)O[C@H](c1ccc(O)c(O)c1)[C@H](O)C2 [(-)-EPICATECHIN] | > 5 |
| Oc1cc(O)c2c(c1)O[C@H](c1cc(O)c(O)c(O)c1)[C@H](O)C2 [EPIGALLOCATECHIN] | 0.7 |
| Oc1cc(O)c2c(c1)O[C@H](c1cc(O)c(O)c(O)c1)[C@@H](O)C2 [GALLOCATECHIN] | 0.16 |
| O=C(/C=C/c1ccc(O)cc1)NCCc1ccc(O)cc1 [N-P-COUMAROYL TYRAMINE] | > 5 |
| COc1cc(/C=C/C(=O)NCCc2ccc(O)cc2)ccc1O [N-TRANS-FERULOYL TYRAMINE] | > 5 |
| COc1cc(/C=C/C(=O)NCCc2ccc(O)c(O)c2)ccc1O [N-TRANS-FERULOYLDOPAMINE] | > 5 |
| Cc1c(C)c2c(c(C)c1O)CCC(C)(C(=O)O)O2 (configuration not stated) [TROLOX] | 0.7 |
